Tests used:
[1] = system: T-47D; assay: MTT cytotoxicity test, T-47D; type: cell-based; settings: Homo sapiens, T47D, T-47D breast cancer, 72 hours, read-out: concentrations flanking the IC50
Procedure: (§1) The influence of the compounds of formulae I and II on neoplastic cells was evaluated using the MTT calorimetric test. The principle of the MTT test is based on the mitochondrial reduction by metabolically active live cells of the yellow-colored product MTT (3-(4,5-dimethylthiazol-2-yl)-2,5-diphenyltetrazolium bromide) to a blue-colored product, formazan. The amount of formazan thus obtained is directly proportional to the amount of live cells present in the culture well(s). This amount of formazan is measured by spectrophotometry.
(§2) The cell lines are maintained in monolayer culture at 37° C. in stoppered culture dishes containing 25 MM HEPES MEM (Minimum Essential Medium) base medium. This medium, which is suitable for growing a range of varied diploid or primary mammalian cells, is then supplemented: […]
(§3) with a an amount of 5% FCS (Fetal Calf Serum) decomplemented at 56° C. for 1 hour, with 0.6 mg/mL of L-glutamine, with 200 IU/mL of penicillin, with […] of streptomycin, with 0.1 mg/mL of gentamicin.
(§4) The 12 human cancer cell lines used were obtained from the American Type Culture Collection (ATCC, Rockville, Md., USA). These 12 cell lines are: […]

[2] = Determination of the maximum tolerated dose (MTD); type: in vivo; settings: mouse, in vivo, ip; single intraperitoneal administration, survival over 14 days, B6D2F1/Jico mice
Procedure: The evaluation of the maximum tolerated dose was carried out on 4- to 6-week-old B6D2F1/Jico mice. […] The value of the MTD (expressed in mg/kg) is determined from observing the survival rate of the animals over a period of 14 days after a single administration of the product under consideration. The change in the weight of the animals is also monitored over this period.

[3] = system: T24; assay: MTT cytotoxicity test, T24; type: cell-based; settings: Homo sapiens, T-24, T24 bladder cancer, 72 hours, read-out: concentrations flanking the IC50
Procedure: as §1, §2, §3, §4

## O=C1c2ncccc2-c2nc3ccccc3c3ccnc1c23 [CRL 8299, Benzo[b]pyrido[4,3,2-de][1,7]phenanthroline-8-one]
[1]
  IC50: 10 nM
[2]
  MTD at 14 days: 80 mg/kg
[3]
  IC50: < 0.1 nM

Source: patent US6583150B1, “Pharmaceutical composition based on polyaromatic compounds” (Laboratorie L. Lafon, priority 1999, dated 2003)
